The data set in a line: Fraction bound to serum proteins. The format is in vitro ADME. As to conditions: human.

Bridge positions count the residues as written; N and C are the ends. Square brackets hold non-standard residues; d marks the D form. 2Nal = N[C@@H](Cc1ccc2ccccc2c1)C(=O)O; Cit = NC(=O)NCCC[C@H](N)C(=O)O

The term fraction unbound denotes the share of the substance not bound to proteins or other matrix. A lower fraction unbound goes with little free substance.

For “cyclo([2Nal]CY[Cit]KVCPKILQRCRRDSDCPGACICRGNGYCGSYR[Cit]CRG[dP]RR) (disulfide 2-38, 7-24, 14-26, 20-32) [MCo-CVX-5c]”, the fraction unbound was less than 0.01.

The values are drawn from publication PMC3521869 (Journal of medicinal chemistry, 2012).
